Measured values taken from PMC10762035, “Molecular basis of human trace amine-associated receptor 1 activation” (Nature Communications, 2024).
Residue numbers refer to the chain shown, from its start. Where “and” joins values, the source holds several entries; their conditions need not be identical. Equal entries are not always repeated.

Key:
Type in all cases: cell-based
[1] = target: T1, hTA1 C5S (Homo sapiens, UniProt Q96RJ0, C5S); assay: GloSensor cAMP accumulation assay, C5S mutant; settings: for C5S - Normalized Luminescence Counts (N=2): log[Compound], single wells
T1 construct: expressed in transfected cells; host or cells: HEK293T
T1 sequence (Q96RJ0 1-339 C5S): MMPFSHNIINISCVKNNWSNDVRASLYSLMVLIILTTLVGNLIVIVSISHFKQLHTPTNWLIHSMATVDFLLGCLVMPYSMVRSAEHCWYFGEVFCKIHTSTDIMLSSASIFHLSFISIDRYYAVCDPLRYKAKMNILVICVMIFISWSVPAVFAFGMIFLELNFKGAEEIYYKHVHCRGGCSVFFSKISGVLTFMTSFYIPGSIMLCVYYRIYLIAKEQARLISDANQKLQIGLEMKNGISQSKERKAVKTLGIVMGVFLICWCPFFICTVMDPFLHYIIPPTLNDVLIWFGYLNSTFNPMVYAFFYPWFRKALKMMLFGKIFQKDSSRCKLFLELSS

[2] = target: T2, hTA1 R83H (Homo sapiens, UniProt Q96RJ0, R83H); assay: GloSensor cAMP accumulation assay, R83H mutant;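 note: cells transiently co-expressing hTA1 and a cAMP GloSensor, luminescence read 30 min after agonist addition at room temperature, concentration–response fitted by non-linear regression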
T2 construct: expressed in transfected cells; host or cells: HEK293T
T2 sequence (Q96RJ0 1-339 R83H): T1 sequence (Q96RJ0 1-339 C5S) with S5C, R83H

[3] = target: T3, hTA1 V184P (Homo sapiens, UniProt Q96RJ0, V184P); assay: GloSensor cAMP accumulation assay, V184P mutant; settings: for cAMP accumulation response, single replicate values (source data, Supplementary Figure 5): hTA1 V184P (N=2), log[Compound]
T3 construct: expressed in transfected cells; host or cells: HEK293T
T3 sequence (Q96RJ0 1-339 V184P): T1 sequence (Q96RJ0 1-339 C5S) with S5C, V184P

[4] = target: T4, hTA1 T271N (Homo sapiens, UniProt Q96RJ0, T271N); assay: GloSensor cAMP accumulation assay, T271N mutant
T4 construct: expressed in transfected cells; host or cells: HEK293T
T4 sequence (Q96RJ0 1-339 T271N): T1 sequence (Q96RJ0 1-339 C5S) with S5C, T271N

Question: Which “Span ± SEM (Emax normalized to β-PEA)” value ([1]; C5S, n=2) does the source give for NCCc1ccc(Oc2ccc(O)cc2)c(I)c1 [T1AM, 3-iodothyronamine] here?
Answer: The value was 81.19 ± 8.03.

Question: What about the “pEC50 ± SEM” value ([1]; C5S, n=2) of the same molecule?
Answer: The value was 5.95 ± 0.04.

Question: And the EC50 ([1]; C5S, n=2, read-out: EC50)?
Answer: Its EC50 is 1110 nM.

Question: What about the “pEC50 values, Mean” value ([1]; hTA1 C5S, mean of 3 replicates, one line per independent experiment) of the same molecule?
Answer: Its value is 6.184 and 5.721.

Question: What about the “Emax values, Mean” value ([1]; hTA1 C5S, β-PEA = 100, mean of 3 replicates, one line per independent experiment) of the same molecule?
Answer: Its value is 73.1551 and 89.2227.

Question: What about the “C5S - Normalized Luminescence Counts (N=2)” value ([1]; M = -5) of the same molecule?
Answer: Its value is 66.8501 and 72.156 and 68.5661 and 75.0127 and 63.7584 and 82.7458.

Question: What about the “C5S - Normalized Luminescence Counts (N=2)” value ([1]; M = -5.522) of the same molecule?
Answer: Its value is 58.0446 and 60.9798 and 52.4226 and 59.2704 and 49.2589 and 55.9562.

Question: What about the “ΔEmax values (each mutant value - WT average)” value ([2]; R83H mutant minus WT average) of the same molecule?
Answer: The value was -50.5458.

Question: What about the “Emax values, Mean” value ([2]; R83H mutant, β-PEA = 100, each line an independent experiment, 3 replicates) of the same molecule?
Answer: Its value is 19.9005 and -6.007.

Question: What about the “Span ± SEM (Emax normalized to β-PEA)” value ([2]; R83H, n=2) of the same molecule?
Answer: Its value is 6.95 ± 12.95.

Question: And the “Span ± SEM (Emax normalized to β-PEA)” value ([3]; V184P, n=2)?
Answer: Its value is 70.26.

Question: And the “pEC50 ± SEM” value ([3]; V184P, n=2)?
Answer: The value was 6.27 ± 0.05.

Question: What about the EC50 ([3]; V184P, n=2, read-out: EC50) of the same molecule?
Answer: Its EC50 is 539 nM.

Question: And the “cAMP accumulation response, single replicate values (source data, Supplementary Figure 5)” value (“cAMP accumulation response” for short) ([3]; M = -5)?
Answer: Its value is 47.1774 and 43.1039 and 48.2443 and 102.347 and 62.5054 and 96.189.

Question: What about the “cAMP accumulation response” value ([3]; M = -5.522) of the same molecule?
Answer: Its value is 32.0474 and 39.1275 and 36.5088 and 86.7693 and 72.5115 and 76.5066.

Question: And the “cAMP accumulation response” value ([3]; M = -6)?
Answer: Its value is 40.0973 and 27.683 and 25.5492 and 73.6844 and 54.6984 and 67.6001.

Question: And the “cAMP accumulation response” value ([3]; M = -6.522)?
Answer: The value was 14.9776 and 12.068 and 13.8138 and 37.1052 and 29.2983 and 35.6391.

Question: And the “cAMP accumulation response” value ([3]; M = -7)?
Answer: Its value is 5.085 and 5.182 and 3.9211 and 15.2237 and 21.0881 and 16.0667.

Question: And the “cAMP accumulation response” value ([3]; M = -7.522)?
Answer: Its value is -0.4433 and -1.4132 and 0.1386 and 3.678 and 3.238 and 3.861.

Question: And the “cAMP accumulation response” value ([3]; M = -8)?
Answer: Its value is -0.9283 (2×) and -1.51 and 5.3642 and 2.908 and 3.861.

Question: What about the “cAMP accumulation response” value ([3]; M = -8.522) of the same molecule?
Answer: The value was -1.316 and -1.607 and -1.51 and 1.809 and 2.2854 and 1.442.

Question: What about the “cAMP accumulation response” value ([3]; M = -9) of the same molecule?
Answer: The value was -1.704 (2×) and -1.801 and 1.442 and -0.5735 and 0.4894.

Question: What about the “cAMP accumulation response” value ([3]; M = -9.522) of the same molecule?
Answer: The value was -1.4132 and -1.801 and -1.607 and 0.3795 and -0.4269 and 0.5994.

Question: What about the “cAMP accumulation response” value ([3]; M = -10) of the same molecule?
Answer: The value was -1.51 and -1.801 (2×) and 1.149 and -0.207 and 0.01294.

Question: And the “cAMP accumulation response” value ([3]; M = -10.522)?
Answer: Its value is -1.316 and -1.607 (2×) and -0.2803 and 0.08625 and -1.233.

Question: What about the “cAMP accumulation response” value ([3]; M = -11) of the same molecule?
Answer: Its value is -1.801 and -1.122 and -1.4132 and 0.746 and 0.7093 and 0.1596.

Question: And the “cAMP accumulation response” value ([3]; M = -11.522)?
Answer: The value was -1.316 and -1.025 and -1.4132 and 0.636 and 1.039 and -0.3169.

Question: What about the “cAMP accumulation response” value ([3]; M = -12) of the same molecule?
Answer: Its value is -1.801 and -1.122 and -1.219 and -0.4635 and 0.9659 and -0.1337.

Question: And the “cAMP accumulation response” value ([3]; M = -12.522)?
Answer: Its value is -1.219 and -0.7343 and -1.607 and 0.0496 and -0.3536 and -0.6468.

Question: What about the “ΔpEC50 values (each mutant value - WT average), Mean” value ([3]; hTA1 V184P mutant minus WT average) of the same molecule?
Answer: The value was 0.071 and 0.2071.

Question: And the “pEC50 values, Mean” value ([3]; hTA1 V184P mutant, Figure 3B source data, each grid row a separate experiment, 3 replicates)?
Answer: Its value is 6.2 and 6.336.

Question: What about the “Emax values, Mean” value ([3]; hTA1 V184P mutant, β-PEA set to 100, each grid row a separate experiment, 3 replicates) of the same molecule?
Answer: Its value is 49.3182 and 91.2084.

Question: And the “ΔpEC50 values (each mutant value - WT average), Mean” value ([4]; T271N mutant minus WT average, Figure 5B)?
Answer: The value was 0.1858 and 0.05902.

Question: What about the “pEC50 values, Mean” value ([4]; T271N mutant, Figure 5B, each row one independent experiment (3 replicates)) of the same molecule?
Answer: The value was 6.315 and 6.188.

Question: And the “Emax values, Mean” value ([4]; T271N mutant, Figure 5B, β-PEA = 100, each row one independent experiment (3 replicates))?
Answer: Its value is 147.043 and 92.5588.

Question: And the “pEC50 ± SEM” value ([4]; T271N, n=2)?
Answer: Its value is 6.25 ± 0.03.

Question: What about the EC50 ([4]; T271N, n=2, read-out: EC50) of the same molecule?
Answer: The EC50 was 560 nM.

Question: What about the Emax ([4]; T271N, relative to β-PEA) of the same molecule?
Answer: The Emax was 119.8%.
